Assay results reported in US12558354B2, “Tumor necrosis factor alpha (TNF-alpha) small molecule inhibitor” (AJOU UNIVERSITY INDUSTRY-ACADEMIC COOPERATION FOUNDATION, priority 2019, dated 2026).
Entries after “also recorded” stand apart in the source; their conditions may differ.

Tests used:
[1] = tested on: murine fibrosarcoma cell line L929; test: Cell viability (MTT) assay in L929 cells; format: cell-based; conditions: L929, up to 200 μM, 24 hours
Procedure: (§1) FIG. 8A is a graph showing the effects of TIM1 and a solvent thereof, DMSO, on the viability of human dermal fibroblasts, in which cells (10^4/well) were treated with DMSO at 3 different concentrations (0.5, 1, and 2%) and TIM1 at 8 different concentrations (1, 3.125, 6.25, 12.5, 25, 50, 100, and 200 μM) for 24 hours, and the cell viability was monitored by an MTT assay. FIG. 8B is a graph showing the effect of TIM1 on the viability of a mouse fibrosarcoma cell line [L929 (1.5×10^4/well)] under the same conditions as in FIG. 8A. All experiments were independently performed 4 times, and mean±SEM of the independent experiments was calculated using a two-tailed paired Student's t-test (*P<0.05).
In order to measure cell viability, a colorimetric […] (MTT) assay (Sigma-Aldrich Co.) was performed. HDFs were seeded at a density of 10^4/well in 96-well plates (BD Biosciences, San Jose, CA, USA), grown overnight, and then treated with a test compound at various concentrations for 24 hours. The next day, the medium was replaced with a medium (100 μl/well) containing a 10% MTT solution, followed by incubated at 37° C. for 3 hours. […] Thereafter, the plates were read at a wavelength of 540 nm using a microplate spectrophotometer system (Molecular Devices, Silicon Valley, California).

[2] = target: T1, recombinant mouse TNF-α homotrimer (Mus musculus, UniProt P06804); test: Dissociation of TNF-α trimerization assembly (cross-linking, Western blot), mouse; format: biochemical; conditions: cross-linked with BS3, Western blot
T1 construct: purchased Miltenyi Biotec
T1 sequence (P06804 80-235 limits assumed): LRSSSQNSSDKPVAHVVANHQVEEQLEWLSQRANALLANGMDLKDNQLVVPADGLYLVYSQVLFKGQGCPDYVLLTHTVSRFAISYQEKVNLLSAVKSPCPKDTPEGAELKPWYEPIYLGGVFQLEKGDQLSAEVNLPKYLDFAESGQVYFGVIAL
Procedure: (§2) Inhibitors were incubated with 100 ng of recombinant TNF-α at 37° C. for 1 hour and then cross-linked with 4.8 mM BS3 (Thermo Fisher Scientific, Inc.) at room temperature for 30 minutes. Then, a 1/10 volume of 1 M Tris-HCl (pH 7.5) was added to stop the reaction. Thereafter, samples were separated by SDS-PAGE, followed by Western blotting with anti-TNF-α antibody (Cell Signaling Technology Inc.).

[3] = target: T2, recombinant human TNF-α (rhTNF-α) (Homo sapiens, UniProt P01375); test: Cell death attenuation assay, act-D-sensitized HDFs with rhTNF-α; format: cell-based
T2 construct: purchased Miltenyi Biotec
Procedure: (§3) HDFs (10^4/well) and L929 cell lines (1.5×10^4/well) were seeded in 96-well plates and grown overnight under appropriate conditions. The next day, HDFs and L929 cells were pretreated with 1 μg/ml act-D and 0.1 μg/ml act-D, respectively, followed by incubated for 30 minutes. Thereafter, a 1-hour-preincubated mixture of 10 ng/ml rhTNFα with test compounds or 1 ng/ml rmTNFα with test compounds, was applied to HDFs and L929 cells, respectively. The cells were incubated for 24 hours post-treatment, and survival was measured by the MTT assay. Cell viability was calculated with reference to the no-treatment control group. The obtained values were normalized with respect to the act-D treatment group and then used to calculate death attenuation (%) rate using the following equation: […]

[4] = tested on: TNF-α-dependent signaling pathways (NF-κB, MAPKs, caspases 3 and 8); test: Western blot of TNF-α-dependent signaling pathways in L929 cells; format: cell-based, mouse
Procedure: Total protein was extracted from the treated cells using an M-PER mammalian protein extraction reagent (Thermo Fisher Scientific, Inc.). The cell pellets were dissolved in a mixture of M-PER with protease and phosphatase inhibitor cocktail (Thermo Fisher Scientific, Inc.) at 4° C. for 1 minute, and the lysate thus obtained was centrifuged at 16,000×g and 4° C. for 10 minutes. The supernatant containing the protein was collected in a separate Eppendorf tube, and a BCA assay (Sigma-Aldrich) was performed for protein quantification. 20 Hg of a protein sample was placed in a 10-12% polyacrylamide gel (containing SDS), and the separated protein was transferred to a nitrocellulose membrane (HYBOND ECL™; Amersham Pharmacia Biotech Inc, Piscataway, New Jersey) of a mini-PROTEAN tetra cell and mini trans-blot electrophoretic transfer cell system (Bio-Rad Laboratories). Membrane blocking was performed with 5% nonfat dried milk for 1 hour. The membrane was subjected to immunoblotting through gentle shaking overnight at a temperature of 4° C. with certain primary antibodies, i.e. antibodies to (phospho-)p-p65, p-JNK, JNK, p-ERK, ERK, cleaved caspase 3 (Cell Signaling Technology Inc., Danvers, MA, USA), p-p38, caspase 8, and β-actin (Santa Cruz Biotechnology Inc., Dallas, TX, USA). The next day, after rigorous washing with PBST, the membrane was incubated with peroxidase-conjugated anti-mouse or anti-rabbit IgG antibodies at room temperature for 2 hours. Protein was detected using a SuperSignal West Pico ECL solution (Thermo Fisher Scientific, Inc.) and visualized with a CHEMIDOC™ Touch Imaging System (Bio-Rad Laboratories).

[5] = target: T2, recombinant human TNF-α (rhTNF-α); test: TNF-α-mediated hIL-6 secretion in HDFs (ELISA); format: cell-based; conditions: 24 hours
Procedure: (§4) HDFs were seeded at a density of 10^4/well in a 96-well plate (BD Biosciences) and grown overnight. The cells were treated for 24 hours with a 1-hour-pre-incubated mixture of rhTNF-α and test compounds. IL-8 secretion was assessed by a human IL-8 uncoated ELISA kit (eBioscience, Inc., San Diego, CA, USA), and IL-6 secretion level was assessed by a human IL-6 ELISA MAX™ Deluxe kit (BioLegend, San Diego, CA, USA). The microtiter plates were then analyzed at an appropriate wavelength using a microplate spectrophotometer system (Molecular Devices, Silicon Valley, California).

[6] = target: T2, recombinant human TNF-α (rhTNF-α); test: TNF-α-mediated hIL-8 secretion in HDFs (ELISA); format: cell-based; conditions: 24 hours
Procedure: as §4

[7] = tested on: human dermal fibroblasts (HDFs); test: Cell viability (MTT) assay in human dermal fibroblasts; format: cell-based; conditions: 24 hours
Procedure: as §1
In order to measure cell viability, a colorimetric […] (MTT) assay (Sigma-Aldrich Co.) was performed. HDFs were seeded at a density of 10^4/well in 96-well plates (BD Biosciences, San Jose, CA, USA), grown overnight, and then treated with a test compound at various concentrations for 24 hours. The next day, the medium was replaced with a medium (100 μl/well) containing a 10% MTT solution, followed by incubated at 37° C. for 3 hours. This solution was replaced with DMSO (100 μl/well), and the plates were incubated at room temperature for 30 minutes. Thereafter, the plates were read at a wavelength of 540 nm using a microplate spectrophotometer system (Molecular Devices, Silicon Valley, California).

[8] = target: T3, recombinant mouse TNF-α (rmTNF-α) (Mus musculus, UniProt P06804); test: Cell death attenuation assay, act-D-sensitized L929 cells with rmTNF-α; format: cell-based
T3 construct: purchased Miltenyi Biotec
T3 sequence (P06804 80-235 limits assumed): T1 sequence (P06804 80-235 limits assumed)
Procedure: as §3

[9] = target: T4, recombinant human TNF-α homotrimer (Homo sapiens, UniProt P01375); test: Dissociation of TNF-α trimerization assembly (cross-linking, Western blot), human; format: biochemical; conditions: cross-linked with BS3, Western blot
T4 construct: purchased Miltenyi Biotec
Procedure: as §2

TNF-α = TNF-α (Homo sapiens, UniProt P01375); conditions: target TNF-α, literature; cited from earlier work
TNFRI = target: T5, TNFRI (Homo sapiens, UniProt P19438); conditions: target TNFRI, literature; cited from earlier work
T5 sequence (P19438 30-455): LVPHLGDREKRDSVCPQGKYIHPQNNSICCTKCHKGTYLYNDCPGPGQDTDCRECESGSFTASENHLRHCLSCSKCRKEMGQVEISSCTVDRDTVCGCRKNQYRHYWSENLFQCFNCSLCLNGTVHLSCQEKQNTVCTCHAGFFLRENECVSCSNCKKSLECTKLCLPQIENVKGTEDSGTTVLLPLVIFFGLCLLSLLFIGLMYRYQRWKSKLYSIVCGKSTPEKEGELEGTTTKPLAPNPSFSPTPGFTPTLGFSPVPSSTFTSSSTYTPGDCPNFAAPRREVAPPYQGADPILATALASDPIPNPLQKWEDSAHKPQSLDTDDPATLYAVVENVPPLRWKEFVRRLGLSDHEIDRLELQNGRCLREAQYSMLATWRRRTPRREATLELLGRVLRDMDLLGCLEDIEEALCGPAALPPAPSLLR

[10] = L929, 20 μM, rmTNF-α 1 ng/ml, 5-30 minutes
[11] = HDFs, rhTNF-α 1 ng/ml pre-incubated 1 hour

T2 sequence (P01375 77-233 limits assumed): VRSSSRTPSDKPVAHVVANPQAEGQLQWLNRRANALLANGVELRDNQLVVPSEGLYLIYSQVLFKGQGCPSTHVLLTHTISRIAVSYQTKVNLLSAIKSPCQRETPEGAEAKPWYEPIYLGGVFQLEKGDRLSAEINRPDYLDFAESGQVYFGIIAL
Chain of TNF-α (P01375 77-233 limits assumed, species assumed): as the sequence (P01375 77-233 limits assumed) above
T4 sequence (P01375 77-233 limits assumed): as above

In the case of C#Cc1cccc(Nc2nc(-c3cc(C)n(NC(=O)c4nn(C)c(=O)c5ccccc45)c3C)cs2)c1 [TIM1, N-(3-{2-[(3-ethynylphenyl)amino]-1,3-thiazol-4-yl}-2,5-dimethylpyrrol-1-yl)-3-methyl-4-oxophthalazine-1-carboxamide], the “lethality at increasing concentrations” value [1] is reported as “no lethality”, the “formation of functional homotrimers, rmTNF-α” value [2] is reported as “inhibited the formation of functional homotrimers” and the IC50 [3] is reported as 26.2 µM. The “attenuation of TNF-α-induced apoptosis” value ([3]; act-D-sensitized HDFs, rhTNF-α 10 ng/ml, 1-100 μM) was “Significant attenuation”, the “TNF-α-mediated phosphorylation of the p65 subunit (NF-κB)” value [4, 10] was “attenuated” and the “phosphorylation of MAPKs (p38 MAPK, JNK, ERK)” value [4, 10] was “inhibited”. The “formation of cleaved active caspases 3 and 8” value ([4]; L929, TNF-α stimulation) was “blocked”, the “inhibition of TNF-α-mediated hIL-6 secretion” value ([5]; HDFs, 1, 10, 50 and 100 μM) was “inhibited TNF-α-mediated secretion” and the IC50 [5, 11] was 6.3 µM. The “inhibition of TNF-α-mediated hIL-8 secretion” value ([6]; HDFs, 1, 10, 50 and 100 μM) was “inhibited TNF-α-mediated secretion”, the IC50 [6, 11] was 16.7 µM and the “lethality / cytotoxicity at increasing concentrations” value ([7]; HDF, up to 200 μM) was “no lethality; also recorded: does not show cytotoxicity up to 200 μM”. The “cytotoxicity (cell viability, MTT assay)” value ([7]; HDFs) was “no cytotoxicity up to a concentration of 50 μM; also recorded: did not exhibit cytotoxicity even at high concentrations (up to 100 μM)”, the IC50 [8] was 24.9 µM and the “inhibition of rmTNF-α-mediated proapoptotic pathway / cell death” value ([8]; act-D-sensitized L929, rmTNF-α 1 ng/ml, 1-100 μM) was “inhibited the rmTNF-α-mediated proapoptotic pathway in L929 cells in a concentration-dependent manner”. For the same compound, the “formation of functional homotrimers, rhTNF-α” value [9] was “inhibited the formation of functional homotrimers”.
For O=C1Sc2c(S(=O)(=O)Nc3ccc(O)cc3)cc(S(=O)(=O)Nc3ccc(O)cc3)c3cccc1c23 [AP-906/41640035], the IC50 (TNF-α) is listed as 14 µM.
In the case of Physcion-8-O-β-D-monoglucoside, the Kd (TNFRI) is given as 0.376 µM.
